Data set [1] in a line: Rat liver microsomes stability test. Type of data set: in vitro ADME. Conditions: for Remaining percentage: rat liver microsomes, average value; for CLint scaled at 1 µM / half-life at 1 µM: rat, liver microsomes, pH 7.4, rat liver microsomes. As for the experimental part:
Firstly, preheated 0.1 M potassium phosphate buffer with 5 mM MgCl2 (i.e. K/Mg buffer) at pH 7.4±0.1. Prepared the spiked solution for the tested compound and reference compound (500 μM spiked solution: added 5 μL of 10 mM stock solution into 95 μL of acetonitrile; 1.5 μM microsomal spiked solution (0.75 mg/mL): added 1.5 μL of 500 μM spiked solution and 18.75 μL of 20 mg/mL liver microsomes into 479.75 μL of K/Mg buffer). Then NADPH was dissolved in buffer K to prepare a 6 mM, 5 mg/mL NADPH stock solution. At different time points (0-, 5-, 15-, 30-, 45 minutes), 30 μL of 1.5 μM spiked solution containing 0.75 mg/mL of microsome solution was distributed onto the designated detection plate. At 0 min, 150 μL of acetonitrile containing internal standard (IS) was added to the 0 min plate well, followed by 15 μL of NADPH stock solution (6 mM). Then, all plates were pre-incubated at 37° C. for 5 minutes, added 15 μL of NADPH stock solution (6 mM), the reaction was initiated and timed. At 5 minutes, 15 minutes, 30 minutes, and 45 minutes, added 150 μL of acetonitrile solution containing IS to the corresponding wells to stop the reaction. After quenching, the plate was shaken for 10 minutes (600 rpm/min), followed by centrifugation at 6000 rpm/min for 15 minutes. 80 μL of supernatant of each well were transferred into a 96-well sample plate containing 140 μL of ultrapure water to perform LC/MS analysis. The analysis of biological samples and all samples were completed by the analysis laboratory of Medicipia Pharmaceutical Technology (Shanghai) Co., Ltd.
On the technique in general: Microsomes from liver hold many membrane-bound enzymes, among them those of drug oxidation.

Data set [2] deals with JAK3-STAT signaling in U937 cells. In words: Western blot of JAK3-STAT signaling in U937 cells. Type of data set: cell-based, human. The procedure: Cell line: human acute myeloid leukemia cell line U937
Time dependent experiment: the tested molecule LS6-45 was co-incubated with U937 cells at a fixed concentration (100 nM), and the total cell protein was extracted at a specific action time. Dose dependent experiment: After co-incubating the tested molecule LS6-45 at different concentrations with U937 cell line for 10 hours, the total cell protein was extracted. Suspended cells U937 were centrifuged to remove the supernatant, washed twice with PBS, and then added an appropriate amount of lysate mixture (RIPA lysate (strong): phosphatase inhibitor mixture (50×): PMSF=100:1:1), lysed for 30 minutes on ice, and centrifugated at 12000 rpm at 4° C. for 15 min). Took the supernatant and discarded the sediment. Took an appropriate amount of supernatant to measure the protein concentration by the BCA method. Then added loading buffer at a 5:1 ratio and boiled at 100° C. for 7 minutes to be used for Western Blot experiments or stored in a −80° C. freezer for later use.
The experimental results are shown in FIG. 4, wherein the Western Blot analysis of compound LS6-45 on JAK3, STAT3, STAT5 proteins and their time/dose-dependent phosphorylation was performed, and GAPDH was used as an internal reference. In FIG. 4, A represents the U937 cell line treated with compound LS6-45 (100 nM) in a time-dependent manner, while B represents the U937 cell line treated with compound LS6-45 in a dose-dependent manner for 10 hours (diluted at five concentrations of 800 nM 1:4).
A general note: A western blot detects proteins with antibodies after separation by electrophoresis.

In a further data set the test system is U937 cells. In words: Cell cycle detection in U937 cells. Conditions: 24 hours. Type of data set: cell-based, human. As for the experimental part:
Cell cycle detection: Took cells in good growth status and adjusted the density to 8×10^5 cells/mL, and evenly distributed them into 6-well plates, 2 mL per well. Then the compound was diluted in gradient and added to the cell suspension, and incubated in an incubator for 24 hours. BD Cycletest™ Plus DNA Reagent Kit was used for staining in this experiment. After 24 hours, the cells were collected into a 15 mL centrifuge tube, and the 6-well plate was washed twice with PBS. The washing solutions were merged into a 15 mL centrifuge tube, centrifuged at 12000 rpm for 5 minutes, and the supernatant was discarded. Added 5 mL of buffer solution to each tube and the cells were gently resuspended. Centrifuge: 12000 rpm for 5 minutes, the supernatant was carefully removed and left about 50 μL of liquid without discarding. Added 1.5 mL of buffer solution to each tube to gently resuspend the cells, which were carefully transferred to a 1.5 mL EP tube. Adjusted the cell concentration to 1×10^6 cells/mL, to meet the requirements of 5×10^5 cells to complete this experiment. Centrifuged at 1200 rpm for 5 minutes, and the supernatant was carefully aspirated. Added 125 μL of Solution A, mixed gently and reacted at room temperature for 10 minutes. Added 100 μL of Solution B, mixed gently and reacted at room temperature for 10 minutes. […]

Read-outs that look alike come from different tables or passages of the source.

Take `C=CC(=O)Nc1cc(Nc2ncc(Cl)c(O[C@@H]3CO[C@H]4[C@@H]3OC[C@H]4OC)n2)ccc1N(C)CCN(C)C` [LS 6-45]: the Remaining percentage stood at 100.00% in data set [1] (0 min); 95.76% in data set [1] (5 min); 90.38% in data set [1] (15 min); 87.93% in data set [1] (30 min); 79.61% in data set [1] (45 min). The CLint scaled at 1 µM in data set [1] (calculated value below the 20.70 limit, read-out: Clint (value in parentheses)) was 16.6 mL/min/kg; in data set [1] (read-out: Clint) it was less than 20.7 mL/min/kg. Besides, the half-life at 1 µM in data set [1] (calculated value beyond the 120 min limit, read-out: T1/2 (value in parentheses)) is 2.5 h; in data set [1] (read-out: T1/2), more than 2 h. For the same molecule, the “phosphorylation level of JAK3 (Western blot)” value is “significantly weakened” in data set [2] (50 nM, 10 hours) and “almost completely disappeared” in data set [2] (200 nM, 10 hours). Further, the “phosphorylation level of JAK3 protein (Western blot)” value in data set [2] (100 nM, 4 hours) is on record as “effectively reduced the phosphorylation level of JAK3 protein”. For the same molecule, the “JAK3 phosphorylation (Western blot)” value in data set [2] (100 nM, around 8 hours) is “completely inhibited JAK3 phosphorylation”. The “phosphorylation levels of downstream proteins STAT3 and STAT5” value is recorded as “weakened in a time-dependent manner” in data set [2] (100 nM, time course) and “dose-dependent weakening” in data set [2] (different concentrations, 10 hours). Moreover, in the data set with U937 cells, the “cell cycle related proteins (CDK2, CDK4, CDK6, Cyclin B1, Cyclin D3, Cyclin E1)” value was “significantly down-regulated”. Also, the cell cycle entry in the data set with U937 cells (different concentrations) is listed as “obvious G0/G1 phase block”.

The record behind these values is patent publication US20230348487A1, “2-AMINOPYRIMIDINE COMPOUND AND PHARMACEUTICAL COMPOSITION THEREOF AND APPLICATION THEREOF” (GUANGZHOU SALUSTIER BIOSCIENCES CO., LTD., priority 2021, published 2023).
